Measured values from US20230233569A1 (Revolution Medicines, Inc., priority 2020, published 2023).
Read-outs that look alike come from different tables or passages of the source.

Columns and labels:
KRAS G12C = KRAS G12C (Homo sapiens, UniProt P01116+P62937, G12C); assay: Ras-Raf disruption / FRET / MOA assay (BRAF RBD); assay type: biochemical; details: with Cyclophilin A
In short: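 His6-K-Ras G12C-GMPPNP (12.5 nM), GST-BRAF RBD (50 nM) and tagless Cyclophilin A (25 μM) incubated 3 h at 25 °C with compound (10-point 3-fold series from 30 μM), pH 7.3 HEPES buffer. Anti-His Eu/anti-GST APC added for 1.5 h; decreased TR-FRET ratio vs DMSO gives IC50.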

AsPC-1 (K-Ras G12D) [1] = assay: Potency assay: pERK; assay type: cell-based; details: Homo sapiens, ASPC1, read-out: pERK EC50
NRAS G12C = NRAS G12C (Homo sapiens, UniProt P01111+P62937, G12C); assay: Ras-Raf disruption / FRET / MOA assay (BRAF RBD); assay type: biochemical
NRAS G12C, sequence (P01111 whole entry G12C): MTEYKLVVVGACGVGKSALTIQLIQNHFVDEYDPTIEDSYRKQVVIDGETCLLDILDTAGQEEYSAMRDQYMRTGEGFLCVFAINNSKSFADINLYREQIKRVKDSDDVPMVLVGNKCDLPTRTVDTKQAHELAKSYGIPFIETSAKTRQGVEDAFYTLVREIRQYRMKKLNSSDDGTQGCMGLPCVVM
NRAS G12C, sequence (P62937 whole entry): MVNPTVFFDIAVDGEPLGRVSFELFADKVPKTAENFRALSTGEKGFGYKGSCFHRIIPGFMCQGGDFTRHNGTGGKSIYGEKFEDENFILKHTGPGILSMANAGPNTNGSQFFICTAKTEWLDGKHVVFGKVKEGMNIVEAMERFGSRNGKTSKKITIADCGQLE
In short: (§1)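 TR-FRET in 25 mM HEPES pH 7.3, 100 mM NaCl, 5 mM MgCl2, 0.1% BSA, 0.002% Tween20 with 25 μM Cyclophilin A, 12.5 nM His6-Ras-GMPPNP, 50 nM GST-BRAF RBD; compound 10-point 3-fold series from 30 μM. After 3 h at 25 °C, Eu anti-His/APC anti-GST added for 1.5 h; IC50 from ratio decrease versus DMSO.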

KRAS G12S = KRAS G12S (Homo sapiens, UniProt P01116+P62937, G12S); assay: Ras-Raf disruption / FRET / MOA assay (BRAF RBD); assay type: biochemical; details: with Cyclophilin A
KRAS G12S, sequence (P01116 1-169 isoform P01116-2 G12S limits assumed): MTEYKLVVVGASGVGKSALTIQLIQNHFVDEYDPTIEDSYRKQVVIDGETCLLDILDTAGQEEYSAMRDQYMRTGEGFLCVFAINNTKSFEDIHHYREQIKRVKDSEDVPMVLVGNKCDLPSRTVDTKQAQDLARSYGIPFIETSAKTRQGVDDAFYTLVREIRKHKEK
KRAS G12S, sequence (P62937 whole entry): as the sequence (P62937 whole entry) above
In short: as §1

KRAS G13D = KRAS G13D (Homo sapiens, UniProt P01116+P62937, G13D); assay: Ras-Raf disruption / FRET / MOA assay (BRAF RBD); assay type: biochemical; details: with Cyclophilin A
KRAS G13D, sequence (P01116 1-169 isoform P01116-2 G13D limits assumed): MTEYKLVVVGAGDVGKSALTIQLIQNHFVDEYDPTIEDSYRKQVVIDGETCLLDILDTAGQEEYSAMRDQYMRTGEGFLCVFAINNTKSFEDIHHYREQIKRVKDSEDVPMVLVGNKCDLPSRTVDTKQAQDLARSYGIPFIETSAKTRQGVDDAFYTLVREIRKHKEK
KRAS G13D, sequence (P62937 whole entry): as the sequence (P62937 whole entry) above
In short: as §1

KRAS G12D = KRAS G12D (Homo sapiens, UniProt P01116+P62937, G12D); assay: Ras-Raf disruption / FRET / MOA assay (BRAF RBD); assay type: biochemical; details: with Cyclophilin A
KRAS G12D, sequence (P01116 1-169 isoform P01116-2 G12D limits assumed): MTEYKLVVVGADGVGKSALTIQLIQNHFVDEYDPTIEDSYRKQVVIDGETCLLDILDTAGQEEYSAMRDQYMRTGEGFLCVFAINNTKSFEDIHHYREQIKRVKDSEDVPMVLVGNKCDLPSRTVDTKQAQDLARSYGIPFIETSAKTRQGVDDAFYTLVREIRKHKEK
KRAS G12D, sequence (P62937 whole entry): as the sequence (P62937 whole entry) above
In short: as §1

KRAS G13C = KRAS G13C (Homo sapiens, UniProt P01116+P62937, G13C); assay: Ras-Raf disruption / FRET / MOA assay (BRAF RBD); assay type: biochemical; details: with Cyclophilin A
KRAS G13C, sequence (P01116 1-169 isoform P01116-2 G13C limits assumed): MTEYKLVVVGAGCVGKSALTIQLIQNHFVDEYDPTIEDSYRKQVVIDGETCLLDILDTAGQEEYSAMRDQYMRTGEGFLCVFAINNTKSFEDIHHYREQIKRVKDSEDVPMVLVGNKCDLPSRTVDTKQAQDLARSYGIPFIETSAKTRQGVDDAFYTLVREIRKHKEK
KRAS G13C, sequence (P62937 whole entry): as the sequence (P62937 whole entry) above
In short: as §1

NRAS Q61R = NRAS Q61R (Homo sapiens, UniProt P01111+P62937, Q61R); assay: Ras-Raf disruption / FRET / MOA assay (BRAF RBD); assay type: biochemical
NRAS Q61R, sequence (P01111 whole entry Q61R): as the sequence (P01111 whole entry G12C) above, with C12G, Q61R counted along it
NRAS Q61R, sequence (P62937 whole entry): as the sequence (P62937 whole entry) above
In short: as §1

KRAS G12V = KRAS G12V (Homo sapiens, UniProt P01116+P62937, G12V); assay: Ras-Raf disruption / FRET / MOA assay (BRAF RBD); assay type: biochemical; details: with Cyclophilin A
KRAS G12V, sequence (P01116 1-169 isoform P01116-2 G12V limits assumed): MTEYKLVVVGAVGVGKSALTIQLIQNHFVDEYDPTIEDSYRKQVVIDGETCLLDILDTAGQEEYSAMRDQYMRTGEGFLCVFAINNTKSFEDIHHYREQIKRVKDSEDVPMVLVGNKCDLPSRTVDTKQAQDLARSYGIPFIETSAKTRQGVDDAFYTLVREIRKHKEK
KRAS G12V, sequence (P62937 whole entry): as the sequence (P62937 whole entry) above
In short: as §1

NRAS Q61K = NRAS Q61K (Homo sapiens, UniProt P01111+P62937, Q61K); assay: Ras-Raf disruption / FRET / MOA assay (BRAF RBD); assay type: biochemical
NRAS Q61K, sequence (P01111 whole entry Q61K): as the sequence (P01111 whole entry G12C) above, with C12G, Q61K counted along it
NRAS Q61K, sequence (P62937 whole entry): as the sequence (P62937 whole entry) above
In short: as §1

NRAS WT = NRAS WT (Homo sapiens, UniProt P01111+P62937); assay: Ras-Raf disruption / FRET / MOA assay (BRAF RBD); assay type: biochemical
NRAS WT, sequence (P01111 whole entry): as the sequence (P01111 whole entry G12C) above, with C12G counted along it
NRAS WT, sequence (P62937 whole entry): as the sequence (P62937 whole entry) above
In short: as §1

KRAS Q61H = KRAS Q61H (Homo sapiens, UniProt P01116+P62937, Q61H); assay: Ras-Raf disruption / FRET / MOA assay (BRAF RBD); assay type: biochemical
KRAS Q61H, sequence (P01116 1-169 isoform P01116-2 Q61H limits assumed): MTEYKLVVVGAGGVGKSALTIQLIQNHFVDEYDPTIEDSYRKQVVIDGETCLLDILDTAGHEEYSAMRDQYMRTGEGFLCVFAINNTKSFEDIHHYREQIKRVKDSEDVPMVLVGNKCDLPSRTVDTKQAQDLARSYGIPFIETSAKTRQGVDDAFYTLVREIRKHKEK
KRAS Q61H, sequence (P62937 whole entry): as the sequence (P62937 whole entry) above
In short: as §1

KRAS WT = KRAS WT (Homo sapiens, UniProt P01116+P62937); assay: Ras-Raf disruption / FRET / MOA assay (BRAF RBD); assay type: biochemical; details: with Cyclophilin A
KRAS WT, sequence (P01116 1-169 isoform P01116-2 limits assumed): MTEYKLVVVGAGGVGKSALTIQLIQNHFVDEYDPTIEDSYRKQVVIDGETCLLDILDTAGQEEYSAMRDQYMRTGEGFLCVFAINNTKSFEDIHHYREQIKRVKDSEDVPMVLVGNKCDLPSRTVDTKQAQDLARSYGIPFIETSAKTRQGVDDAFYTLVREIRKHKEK
KRAS WT, sequence (P62937 whole entry): as the sequence (P62937 whole entry) above
In short: as §1

AsPC-1 (K-Ras G12D) [2] = assay: CellTiter-Glo cell viability assay; assay type: cell-based; details: Homo sapiens, ASPC1, 120 h, read-out: AsPC-1 Cell Viability assay data IC50, K-Ras G12D, 5-day treatment
In short: (§2)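 Luminescence from CellTiter-Glo serves as the viability read-out after cells are treated with compound for 5 days. Each well's signal is divided by the DMSO average and multiplied by 100, and curves are fitted by four-parameter logistic regression.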

NCI-H358 (K-Ras G12C) = assay: CellTiter-Glo cell viability assay; assay type: cell-based; details: Homo sapiens, NCI-H358, 120 h, read-out: H358 Cell Viability assay data IC50, K-Ras G12C, 5-day treatment
In short: as §2

[3] = KRAS G12C FRET data IC50, Ras-Raf disruption
[4] = NRAS G12C FRET data IC50, NRAS G12C
[5] = KRAS G12S FRET data IC50, Ras-Raf disruption
[6] = KRAS G13D FRET data IC50, Ras-Raf disruption
[7] = KRAS G12D FRET data IC50, Ras-Raf disruption
[8] = KRAS G13C FRET data IC50, Ras-Raf disruption
[9] = KRAS G12V FRET data IC50, Ras-Raf disruption
[10] = KRAS WT FRET data IC50, Ras-Raf disruption

KRAS G12C, sequence (P01116 1-169 isoform P01116-2 G12C limits assumed): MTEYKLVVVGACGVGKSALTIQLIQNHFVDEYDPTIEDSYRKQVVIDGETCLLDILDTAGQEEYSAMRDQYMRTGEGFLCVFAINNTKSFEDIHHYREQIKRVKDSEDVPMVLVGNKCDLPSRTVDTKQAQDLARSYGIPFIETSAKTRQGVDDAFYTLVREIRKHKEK
KRAS G12C, sequence (P62937 whole entry): as the sequence (P62937 whole entry) above

Row | SMILES | IC50 (KRAS G12C; [3]) [µM] | EC50 (AsPC-1 (K-Ras G12D) [1]) [µM] | IC50 (NRAS G12C; [4]) [µM] | IC50 (KRAS G12S; [5]) [µM] | IC50 (KRAS G13D; [6]) [µM] | IC50 (KRAS G12D; [7]) [µM] | IC50 (KRAS G13C; [8]) [µM] | IC50 (NRAS Q61R) [µM] | IC50 (KRAS G12V; [9]) [µM] | IC50 (NRAS Q61K) [µM] | IC50 (NRAS WT) [µM] | IC50 (KRAS Q61H) [µM] | IC50 (KRAS WT; [10]) [µM] | IC50 (AsPC-1 (K-Ras G12D) [2]) [µM] | IC50 (NCI-H358 (K-Ras G12C)) [µM] | other results
1 | CCn1c(-c2cc(N3CCN(C)CC3)cnc2[C@H](C)OC)c2c3cc(ccc31)-c1cc(O)cc(c1)C[C@H](NC(=O)[C@H](C1CCCC1)N(C)C(=O)CN(C)C(=O)[C@H]1CN1)C(=O)N1CCC[C@H](N1)C(=O)OCC(C)(C)C2 [Example 209, (2R)—N-(2-(((1S)-1-cyclopentyl-2-(((6^3S,4S)-1^1-ethyl-2^5-hydroxy-1^2-(2-((S)-1-methoxyethyl)-5-(4-methylpiperazin-1-yl)pyridin-3-yl)-10,10-dimethyl-5,7-dioxo-6^1,6^2,6^3,6^4,6^5,6^6-hexahydro-1^1H-8-oxa-1(5,3)-indola-6(1,3)-pyridazina-2(1,3)-benzenacycloundecaphane-4-yl)amino)-2-oxoethyl)(methyl)amino)-2-oxoethyl)-N-methylaziridine-2-carboxamide] | < 0.01 | < 5 | < 0.01 | 0.01 to 0.1 | 0.01 to 0.1 | 0.01 to 0.1 | < 0.01 | 0.01 to 0.1 | 0.01 to 0.1 | 0.1 to 1 | 0.01 to 0.1 | < 0.01 | 0.01 to 0.1 | < 0.01 | < 0.01 | 
2 | CCn1c(-c2cccnc2[C@H](C)OC)c2c3cc(ccc31)-c1cc(O)cc(c1)C[C@H](NC(=O)[C@H](C1CCCC1)N1CC[C@]3(CCN(C(=O)[C@@H]4N[C@@H]4C4CC4)C3)C1=O)C(=O)N1CCC[C@H](N1)C(=O)OCC(C)(C)C2 [Example 214, (2S)-2-cyclopentyl-2-((S)-7-((2R,3R)-3-cyclopropylaziridine-2-carbonyl)-1-oxo-2,7-diazaspiro[4.4]nonan-2-yl)-N-((6^3S,4S)-1^1-ethyl-2^5-hydroxy-1^2-(2-((S)-1-methoxyethyl)pyridin-3-yl)-10,10-dimethyl-5,7-dioxo-6^1,6^2,6^3,6^4,6^5,6^6-hexahydro-1^1H-8-oxa-1(5,3)-indola-6(1,3)-pyridazina-2(1,3)-benzenacycloundecaphane-4-yl)acetamide] |  | < 5 |  |  |  |  |  |  |  |  |  |  |  | 0.01 to 0.1 | 0.01 to 0.1 | IC50 (KRAS G12C; Ras-Raf disruption, read-out: KRAS G12C FRET data IC50): 0.01 to 0.1 µM; IC50 (NRAS G12C; NRAS G12C, read-out: NRAS G12C FRET data IC50): 0.01 to 0.1 µM; IC50 (KRAS G12S; Ras-Raf disruption, read-out: KRAS G12S FRET data IC50): 0.01 to 0.1 µM; IC50 (KRAS G13D; Ras-Raf disruption, read-out: KRAS G13D FRET data IC50): 0.1 to 1 µM; IC50 (KRAS G12D; Ras-Raf disruption, read-out: KRAS G12D FRET data IC50): < 0.01 µM; IC50 (KRAS G13C; Ras-Raf disruption, read-out: KRAS G13C FRET data IC50): 0.01 to 0.1 µM; IC50 (NRAS Q61R; NRAS Q61R, read-out: NRAS Q61R FRET data IC50): 0.1 to 1 µM; IC50 (KRAS G12V; Ras-Raf disruption, read-out: KRAS G12V FRET data IC50): 0.01 to 0.1 µM; IC50 (NRAS Q61K; NRAS Q61K, read-out: NRAS Q61K FRET data IC50): 0.1 to 1 µM; IC50 (NRAS WT; NRAS WT, read-out: NRAS WT FRET data IC50): 0.01 to 0.1 µM; IC50 (KRAS Q61H; KRAS Q61H, read-out: KRAS Q61H FRET data IC50): 0.01 to 0.1 µM; IC50 (KRAS WT; Ras-Raf disruption, read-out: KRAS WT FRET data IC50): 0.01 to 0.1 µM
3 | CCn1c(-c2cccnc2[C@H](C)OC)c2c3cc(ccc31)-c1cc(O)cc(c1)C[C@H](NC(=O)[C@H](C(C)C)N(C)C(=O)CN(C)C(=O)[C@@]1(C)CN1)C(=O)N1CCC[C@H](N1)C(=O)OCC(C)(C)C2 [Example 256] | 0.01 to 0.1 | < 5 | 0.01 to 0.1 | 0.01 to 0.1 | 0.01 to 0.1 | 0.01 to 0.1 | < 0.01 | 0.1 to 1 | 0.01 to 0.1 | 0.1 to 1 | 0.01 to 0.1 | 0.01 to 0.1 | 0.01 to 0.1 | 0.1 to 1 | 0.01 to 0.1 | 
4 | CCn1c(-c2cccnc2[C@H](C)OC)c2c3cc(ccc31)-c1cc(O)cc(c1)C[C@H](NC(=O)[C@H](C(C)C)N(C)C(=O)CN(C)C(=O)[C@]1(C)CN1)C(=O)N1CCC[C@H](N1)C(=O)OCC(C)(C)C2 [Example 257] | 0.01 to 0.1 | < 5 | 0.01 to 0.1 | 0.01 to 0.1 | 0.01 to 0.1 | 0.1 to 1 | < 0.01 | 0.1 to 1 | 0.01 to 0.1 | 0.1 to 1 | 0.01 to 0.1 | 0.01 to 0.1 | 0.01 to 0.1 | 0.1 to 1 | 0.01 to 0.1 | 
5 | CCn1c(-c2cccnc2[C@H](C)OC)c2c3cc(ccc31)-c1cc(O)cc(c1)C[C@H](NC(=O)[C@H](C(C)C)N(C)C(=O)CN(C)C(=O)[C@@H]1N[C@@H]1C(F)(F)F)C(=O)N1CCC[C@H](N1)C(=O)OCC(C)(C)C2 [Example 258] | 0.01 to 0.1 | < 5 | 0.01 to 0.1 | 0.01 to 0.1 | 0.01 to 0.1 | 0.01 to 0.1 | < 0.01 | 0.01 to 0.1 | 0.01 to 0.1 | 0.01 to 0.1 | < 0.01 | < 0.01 | 0.01 to 0.1 | 0.1 to 1 | 0.01 to 0.1 | 
6 | CCn1c(-c2cccnc2[C@H](C)OC)c2c3cc(ccc31)-c1cc(O)cc(c1)C[C@H](NC(=O)[C@H](C(C)C)N(C)C(=O)CN(C)C(=O)[C@H]1N[C@H]1C(F)(F)F)C(=O)N1CCC[C@H](N1)C(=O)OCC(C)(C)C2 [Example 259] | 0.01 to 0.1 | < 5 | 0.01 to 0.1 | 0.01 to 0.1 | 0.01 to 0.1 | 0.1 to 1 | 0.01 to 0.1 | 0.1 to 1 | 0.01 to 0.1 | 0.1 to 1 | 0.01 to 0.1 | 0.01 to 0.1 | 0.01 to 0.1 | 0.1 to 1 | 0.01 to 0.1 | 
